Laboratory results reported in ChEMBL document CHEMBL1201862, “PubChem BioAssay data set” (2004).
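Assay format: 96-well plates, 48-hour exposure. GI50 = concentration required for 50% inhibition of growth.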 Activity calls are given as the source filed them. Rule as the data show it: active = GI50 up to about 1.1 µM and inactive = higher. Where a SMILES comes first, the peptide text is derived from it. [ ]: non-standard residue; d: D form. The star is where a group is joined. ξ: configuration not given here. ξD = NC(CC(=O)O)C(=O)O; Boc = CC(C)(C)OC(=O)*; Aib = CC(C)(N)C(=O)O; OtBu = CC(C)(C)O*

Experiments:
Assay in all cases: DTP human tumour cell line panel, 48 h
[1] = tested on: A549
[2] = tested on: M14
[3] = tested on: SK-MEL-2
[4] = tested on: SF-539
[5] = tested on: MOLT-4
[6] = tested on: MDA-MB-231
[7] = tested on: T47D
[8] = tested on: SNB-19
[9] = tested on: OVCAR-5
[10] = tested on: CCRF-CEM
[11] = tested on: HL-60
[12] = tested on: EKVX
[13] = tested on: UACC-62
[14] = tested on: NCI-H23
[15] = tested on: SW-620
[16] = tested on: SNB-75
[17] = tested on: SK-MEL-5
[18] = tested on: MDA-N
[19] = tested on: SR

Measured: GI50

C=C(C)C1Cc2cc(C(C)=O)ccc2O1 (stereo not drawn)
inactive: [1] > 100 µM | [2] > 100 µM | [3] > 100 µM | [4] > 100 µM | [5] > 100 µM | [6] > 100 µM | [7] > 100 µM | [8] > 100 µM | [9] > 100 µM | [10] > 100 µM | [11] > 100 µM | [12] > 100 µM | [13] > 100 µM | [14] > 100 µM | [15] > 100 µM | [16] > 100 µM | [17] > 100 µM | [18] > 100 µM

COc1cc(/C=C2\N=C(c3ccccc3)N(c3ccc4c(c3)Sc3cc(N5C(=O)/C(=C/c6cc(OC)c(OC)c(OC)c6)N=C5c5ccccc5)ccc3N4)C2=O)cc(OC)c1OC
inactive: [1] 37.6 µM | [2] 31.6 µM | [3] 18.5 µM | [5] 37.2 µM | [6] 25.7 µM | [7] 25.2 µM | [8] 21.2 µM | [9] 20.6 µM | [10] 22 µM | [11] 26.9 µM | [12] 22.8 µM | [13] 16.9 µM | [14] 19.3 µM | [15] 42.7 µM | [16] 24.7 µM | [17] 16.5 µM | [18] 19.8 µM

CCOC(=O)c1cc(C2(OC)CCN(Cc3ccccc3)C2=O)c(-c2cc(C)no2)[nH]1 (stereo not drawn)
inactive: [1] > 100 µM | [2] > 100 µM | [3] > 100 µM | [5] > 100 µM | [6] > 100 µM | [7] > 100 µM | [8] > 100 µM | [9] > 100 µM | [12] 93.1 µM | [13] > 100 µM | [14] > 100 µM | [15] > 100 µM | [16] > 100 µM | [17] 97.1 µM | [18] > 100 µM

CCOC(=O)c1c(-c2ccccc2)nc2ccccc2c1O
inactive: [1] > 100 µM | [2] > 100 µM | [5] > 100 µM | [7] > 100 µM | [19] > 100 µM | [8] > 100 µM | [9] > 100 µM | [10] > 10 µM | [11] > 100 µM | [12] > 100 µM | [14] > 100 µM | [15] > 100 µM | [16] > 100 µM | [17] > 100 µM | [18] > 100 µM

COC(=O)C1(C(=O)OC)N=C(C)OC1C(C)C (stereo not drawn)
inactive: [1] > 100 µM | [2] > 100 µM | [3] > 100 µM | [5] > 100 µM | [7] > 100 µM | [19] > 100 µM | [8] > 100 µM | [9] > 100 µM | [10] > 100 µM | [11] 37.5 µM | [12] > 100 µM | [14] > 100 µM | [15] > 100 µM | [16] > 100 µM | [17] > 100 µM | [18] > 100 µM

O=C(CSc1nnc(-c2ccccn2)s1)N/N=C/c1ccccc1
inactive: [1] > 100 µM | [2] > 100 µM | [3] > 100 µM | [4] > 100 µM | [5] 63.5 µM | [6] > 100 µM | [7] 46.8 µM | [19] > 100 µM | [8] > 100 µM | [9] > 100 µM | [10] > 100 µM | [13] > 100 µM | [14] > 100 µM | [15] > 100 µM | [16] 3.03 µM | [17] > 100 µM | [18] > 100 µM

O=[N+]([O-])c1cccc(/N=N/c2c(O)ccc3ccccc23)c1
inactive: [1] > 100 µM | [2] > 100 µM | [3] 50.4 µM | [5] 85.3 µM | [6] 56.4 µM | [7] > 100 µM | [8] 25.4 µM | [9] > 100 µM | [10] 16.2 µM | [12] 35.2 µM | [13] 41.4 µM | [14] 70.8 µM | [15] 57 µM | [16] 91 µM | [17] 75.7 µM | [18] 87.3 µM

c1cc(-c2sc(-c3ccncc3)c(-c3ccncc3)c2-c2ccncc2)ccn1
inactive: [1] 17.2 µM | [2] 16.5 µM | [3] 20.1 µM | [4] 12.5 µM | [5] 12 µM | [6] 15.1 µM | [7] 32.4 µM | [19] 14.2 µM | [8] 18.4 µM | [9] 19.7 µM | [12] 13.1 µM | [13] 14.1 µM | [14] 16.1 µM | [15] 17 µM | [16] 14 µM | [17] 14.7 µM | [18] 13.8 µM

COC(=O)C(C)(C)NC(=O)C(C)(C)NC(=O)C(CC(=O)OC(C)(C)C)NC(=O)OC(C)(C)C (stereo not drawn) (Boc-[ξD](OtBu)-[Aib]-[Aib]-OMe)
inactive: [1] > 100 µM | [2] > 100 µM | [3] > 100 µM | [4] > 100 µM | [5] > 100 µM | [6] > 100 µM | [7] > 100 µM | [8] > 100 µM | [9] > 100 µM | [10] > 100 µM | [12] > 100 µM | [13] > 100 µM | [14] > 100 µM | [15] > 100 µM | [16] > 100 µM | [17] > 100 µM | [18] > 10 µM
